Data taken from PMC11544713, “The Application of Untargeted Metabolomic Approaches for the Search of Common Bioavailable Metabolites in Human Plasma Samples from Lippia citriodora and Olea europaea Extracts” (Journal of Agricultural and Food Chemistry, 2024).

Test: Acute intervention: nutrikinetics of plasma metabolites after ingestion of O. europaea extract (untargeted HPLC-ESI-QTOF-MS)
Protocol: A total of 25 healthy individuals participated, with an average age of 27 ± 9 years and a mean body mass index (BMI) of 23 ± 3 kg/m^2. None of the participants were taking any medications or nutritional supplements nor did they have any chronic diseases or gastrointestinal issues. The sample size was established based on findings from previous bioavailability research.[14] All participants provided informed consent before participating in the study.
The intervention study was carried out at Miguel Hernández University. Following an overnight fast, the volunteers were categorized into the subsequent groups: a subgroup to evaluate the LC leaf extract (n = 8), another for the OE leaf extract (n = 8), and the placebo subgroup (n = 9). This was a double-blind study, in which sample collection and treatment were carried out uniformly across all three subgroups.
Water was provided ad libitum. Prior to the ingestion of the capsule, a nurse inserted a cannula into the ulnar vein of each volunteer’s nondominant arm, and blood samples were drawn into EDTA-coated tubes at baseline (t = 0). Blood samples were then collected at 0.5, 1, 2, 4, 6, 8, and 10 h after the consumption of the 500 mg capsule. Plasma was separated through centrifugation (10 min at 3000 rpm and 4 °C) and stored at −80 °C until further analysis.
Plasma samples were initially treated using a mixture of methanol and ethanol (50:50; v:v) to remove proteins, following previously reported protocols.[19] During the sample treatment, pooled quality controls (pooled-QC) were prepared by combining equal aliquots from each sample. These QC samples were processed by using the same protocols as the experimental biological samples.
A reversed-phase analytical C18 column (Agilent Zorbax Eclipse Plus, 1.8 μm, 4.6 × 150 mm^2) with a protective cartridge with the same packing was used. MS data were acquired in negative ionization mode, operating in full scan across a mass-to-charge ratio (m/z) range of 50–1700. The analytical method used was adapted from that described by Villegas-Aguilar et al.[19]
Metabolite nutrikinetics were studied using PKSolver, an add-in program for pharmacokinetic data analysis in Microsoft Excel. The time to reach the maximum concentration (observed Tmax) was calculated for each significant metabolite. As an untargeted metabolomic approach was used to detect the circulating metabolites, these were not quantified. Therefore, the maximum concentration (Cmax) and area under the curve (AUC) parameters were calculated in a relative way by using the deconvoluted chromatographic areas. […] Statistical differences were determined by unpaired t tests. All p values less than 0.05 were considered statistically significant.

[1] = human plasma, 500 mg capsule of O. europaea (OE) extract, oral, mean ± SD
[2] = 0.5 h after O. europaea extract

| Molecule | mean chromatographic area in plasma, T10 (10 h after O. europaea extract) | Cmax: relative maximum plasma level [1] | observed Tmax: time required to reach Cmax [1] | mean chromatographic area in plasma, T0.5 [2] | mean chromatographic area in plasma, T1 (1 h after O. europaea extract) | mean chromatographic area in plasma, T2 (2 h after O. europaea extract) | mean chromatographic area in plasma, T4 (4 h after O. europaea extract) | mean chromatographic area in plasma, T6 (6 h after O. europaea extract) | mean chromatographic area in plasma, T8 (8 h after O. europaea extract) | Cmax: relative maximum plasma level (human, in vivo, po, 500 mg) | observed Tmax: time required to reach Cmax (human, in vivo, po, 500 mg) | mean chromatographic area in plasma, T1 (in vivo) | mean chromatographic area in plasma, T2 (in vivo) | mean chromatographic area in plasma, T4 (in vivo) | mean chromatographic area in plasma, T6 (in vivo) | mean chromatographic area in plasma, T8 (in vivo) | mean chromatographic area in plasma, T10 (in vivo) | other results |
| --- | --- | --- | --- | --- | --- | --- | --- | --- | --- | --- | --- | --- | --- | --- | --- | --- | --- | --- |
| homovanillyl alcohol glucuronide [homovanillyl alcohol glucuronide isomer 2] | 0 | 735 ± 257 relative chromatographic area | 1.6 ± 0.5 h |  |  |  |  |  |  |  |  |  |  |  |  |  |  | mean chromatographic area in plasma, T0.5 (0.5 h after O. europaea extract, listed as homovanillic alcohol glucuronide isomer 2): 242; mean chromatographic area in plasma, T1 (1 h after O. europaea extract, listed as homovanillic alcohol glucuronide isomer 2): 677; mean chromatographic area in plasma, T2 (2 h after O. europaea extract, listed as homovanillic alcohol glucuronide isomer 2): 704; mean chromatographic area in plasma, T4 (4 h after O. europaea extract, listed as homovanillic alcohol glucuronide isomer 2): 365; mean chromatographic area in plasma, T6 (6 h after O. europaea extract, listed as homovanillic alcohol glucuronide isomer 2): 165; mean chromatographic area in plasma, T8 (8 h after O. europaea extract, listed as homovanillic alcohol glucuronide isomer 2): 61 |
| hydroxytyrosol glucuronide [hydroxytyrosol glucuronide isomer 1] | 0 | 1002 ± 411 relative chromatographic area | 0.9 ± 0.2 h | 724 | 955 | 463 | 158 | 61 | 28 |  |  |  |  |  |  |  |  |  |
| kaempferol sulfate |  |  |  |  |  |  |  |  |  | 172 ± 102 relative chromatographic area | 1.1 ± 0.3 h | 165 | 59 | 0 | 0 | 0 | 0 | mean chromatographic area in plasma, T0.5 (in vivo): 25 |
| COc1cc(C=O)ccc1O[C@@H]1O[C@H](C(=O)O)[C@@H](O)[C@H](O)[C@H]1O [vanillin glucuronide] |  |  |  |  |  |  |  |  |  | 180 ± 66 relative chromatographic area | 1 ± 0 h | 180 | 121 | 40 | 11 | 0 | 0 | mean chromatographic area in plasma, T0.5 (in vivo): 60 |
| COc1cc(C(=O)O)cc(OC)c1OC [eudesmic acid] | 0 | 120 ± 27 relative chromatographic area | 1 ± 0 h | 34 | 120 | 28 | 0 | 0 | 0 |  |  |  |  |  |  |  |  |  |
| O=C(O)CCCCCCCCC(=O)O [decanedioic acid isomer 2, decanedioic acid] | 60 | 112 ± 11 relative chromatographic area | 6 ± 3 h | 0 | 0 | 26 | 47 | 84 | 38 |  |  |  |  |  |  |  |  |  |
| O=C(O)CCCCCCCCC(=O)O [debacic acid isomer 3, sebacic acid] |  |  |  |  |  |  |  |  |  | 330 ± 109 relative chromatographic area | 6 ± 2 h | 0 | 33 | 209 | 226 | 178 | 141 | mean chromatographic area in plasma, T0.5 (in vivo): 13 |
| 10-hydroxy-7 -methoxyoleuropein [10-hydroxy-7-methoxyoleuropein isomer 2] | 0 | 241 ± 89 relative chromatographic area | 1.9 ± 0.3 h | 11 | 164 | 229 | 148 | 34 | 0 |  |  |  |  |  |  |  |  |  |
| homovanillyl alcohol glucuronide [homovanillyl alcohol glucuronide isomer 1] | 0 | 504 ± 154 relative chromatographic area | 1.1 ± 0.3 h |  |  |  |  |  |  |  |  |  |  |  |  |  |  | mean chromatographic area in plasma, T0.5 (0.5 h after O. europaea extract, listed as homovanillic alcohol glucuronide isomer 1): 274; mean chromatographic area in plasma, T1 (1 h after O. europaea extract, listed as homovanillic alcohol glucuronide isomer 1): 503; mean chromatographic area in plasma, T2 (2 h after O. europaea extract, listed as homovanillic alcohol glucuronide isomer 1): 372; mean chromatographic area in plasma, T4 (4 h after O. europaea extract, listed as homovanillic alcohol glucuronide isomer 1): 183; mean chromatographic area in plasma, T6 (6 h after O. europaea extract, listed as homovanillic alcohol glucuronide isomer 1): 66; mean chromatographic area in plasma, T8 (8 h after O. europaea extract, listed as homovanillic alcohol glucuronide isomer 1): 26 |
| COC(=O)C1=CO[C@H](O)/C(=C/CO)[C@@H]1CC(=O)OCCc1ccc(O)c(O)c1 [10-hydroxyoleuropein aglycone] | 0 | 194 ± 76 relative chromatographic area | 0.7 ± 0.2 h | 165 | 142 | 15 | 0 | 0 | 0 |  |  |  |  |  |  |  |  |  |
| COc1cc(-c2oc3cc(O[C@@H]4O[C@@H](C)[C@H](O)[C@@H](O)[C@H]4O)cc(O)c3c(=O)c2O[C@@H]2O[C@H](CO)[C@@H](O)[C@H](O)[C@H]2O)ccc1O [isorhamnetin 3-O-glucoside-7-O-rhamnoside] | 0 | 133 ± 18 relative chromatographic area | 0.9 ± 0.2 h | 34 | 130 | 14 | 0 | 0 | 0 |  |  |  |  |  |  |  |  |  |
| oleuropein aglycone glucuronide [oleuropein aglycone glucuronide isomer 2] |  |  |  |  |  |  |  |  |  |  | 0.9 ± 0.2 h | 482 | 197 | 24 | 0 | 0 | 0 |  |
| COc1cc(CCC(=O)O)ccc1OS(=O)(=O)O [dihydroferulic acid 4-sulfate] |  |  |  |  |  |  |  |  |  | 190 ± 20 relative chromatographic area | 1.3 ± 0.4 h |  |  |  |  |  |  |  |
